From US20110098180A1, “Herbicide-Resistant Plants, And Polynucleotides And Methods For Providing Same” (United States Department of Agriculture, priority 2002, published 2011) come the findings set out here.

Experiment in all cases: Cross-resistance testing, His-tagged column-purified PDS (Table 2A)
Assay [1] relates to hydrilla PDS Arg^304 → Threonine, His-tagged. Format: biochemical, Hydrilla verticillata. As to conditions: Threonine at 304 relative to Arginine; Table 2A. From the text:
(§1) In further cross-resistance testing similar to that described above, an alternative production and purification protocol was used in the preparation of the mutant PDS proteins, and the activity of the proteins was again tested using the same testing protocol. The alternative approach utilized His-tagging and column purification of the mutant PDS protins. The results are shown in. Table 2A below.
(§2) The plasmid pHy4ATG5 was made by cloning the Phytoene Desaturase (pds) gene from Hydrilla verticillata, including 323 by upstream of the beginning of the putative mature protein, into the vector TOPO4 (Invitrogen, Carlsbad, Calif.): The 1-323 by region contained three potential start codons (ATG)(positions 1, 114 and 225 bp) in frame with pds. In order to express pds in bacteria, deletion clones were made for each of the three potential start codons with and without ATG. Only the results for possible origins of translation 1 and 225 by (named ORF and 3ORF) are reported here. pds was PCR amplified and subcloned into TOPO4 using pHy4ATG5 as template and the reverse primer RPDS—1849 (5′[…] 3′). The forward primers used were ORF (5′ […] 3′), ORF-ATG (5′ […] 3′), 3_ORF (5′[…] 3′) and 3_ORF-ATG (5′ […] 3′). The resulting plasmids were named pORF, pORF-ATG (minus ATG codon), p3ORF and p3ORF-ATG. The pds-containing EcoRI-fragments of these plasmids were subcloned into the EcoRI site of pRSETb vector (Invitrogen) for Histidine tagging and bacterial expression. The resulting constructs were pHy4SET, pHy4SET-ATG (minus ATG), p3ORFSET and p3ORFSET-ATG.
(§3) Plasmid p3ORF-ATG was later mutagenized at the amino acid 304 of pds to replace the amino acid Arginine (Arg) by Histidine (His), Threonine (Thr), Serine (Ser), or Cysteine (Cys), using the QuickChange™ Site-Directed Mutagenesis Kit of Stratagene (La Jolla, Calif.). Primers used to replace Arg by His were Hyd-His-For (5′[…] 3′) and Hyd-His-Rev (5′ […] 3′); to replace Arg by Thr we used primers Hyd-Thr-For (5′[…] 3′) and Hyd-Thr-Rev (5′[…] 3′); to replace Arg by Ser we used Hyd-Ser-For (5′[…] 3′) and Hyd-Ser-Rev (5′[…] 3′); and Arg was replaced by Cys using Hyd-Cys-For (5′[…] 3′) and Hyd-Cys-Rev (5′[…] 3′). Resulting plasmids were named: p3ORFHisSet-ATG, p3ORFThrSet-ATG, p3ORFSerSet-ATG and p3ORFCysSet-ATG.
(§4) All pRSET derived constructs were transformed into BL21(DE3)pLysS cells (Invitrogen), induced with IPTG for protein expression, and the His tag overproduced proteins analyzed by Western blot using Anti-HisG antibody (Invitrogen, cat. #R940-25).
(§5) When working with His-tagged PDS proteins expressed as described in Example 4, the purified protein used for testing was prepared as follows. BL21(DE3)pLysS cells were grown overnight in 500 ml Luria Broth (LB) supplemented with carbenicillin (100 mg/l) and cloramphenicol (60 mg/l) at 37° C., and induced with 0.3 mM isopropylthio-β-D-galactoside (IPTG) for 3 hrs. Cells were lysed using a French press (Spectronics Instrument) at 20,000 psi and overexpressed PDS was purified on a nickel activated Hitrap Chelating HP column according to the manufacturers instructions (Amersham Bioscience).
(§6) Generally, PDS protein fractions prepared as described above (Non-His-tagged and His-tagged) were mixed with a soluble fraction from phytoene-producing E. coli cells. For the phytoene producing cells, a plasmid construct containing the genes GGPP synthase and phytoene synthase from Erwinia uredovora, transformed into the appropriate E. coli strain, was used (see, Misawa et al., J. of Bacteriology 177:6575, 1995). This E. coli strain was separately cultured and lysed, and its soluble components collected (“the EB extract”) in a fashion similar to that described above for the PDS-producing cells.
(§7) His-tagged, purified proteins prepared as described above were transferred to the assay buffer on a PD10 column (Amersham Bioscience) and the concentration was adjusted to 100 μg/mL. […]

Assay [2] deals with hydrilla PDS Arg^304 → Threonine, His-tagged (Hydrilla verticillata, UniProt Q66PY0, R304T). It counts as biochemical. Conditions: Threonine at 304; His-tagged, column-purified PDS; read-out: I50.
hydrilla PDS Arg^304 → Threonine, His-tagged (Hydrilla verticillata, UniProt Q66PY0, R304T), sequence (Q66PY0 77-580 R304T): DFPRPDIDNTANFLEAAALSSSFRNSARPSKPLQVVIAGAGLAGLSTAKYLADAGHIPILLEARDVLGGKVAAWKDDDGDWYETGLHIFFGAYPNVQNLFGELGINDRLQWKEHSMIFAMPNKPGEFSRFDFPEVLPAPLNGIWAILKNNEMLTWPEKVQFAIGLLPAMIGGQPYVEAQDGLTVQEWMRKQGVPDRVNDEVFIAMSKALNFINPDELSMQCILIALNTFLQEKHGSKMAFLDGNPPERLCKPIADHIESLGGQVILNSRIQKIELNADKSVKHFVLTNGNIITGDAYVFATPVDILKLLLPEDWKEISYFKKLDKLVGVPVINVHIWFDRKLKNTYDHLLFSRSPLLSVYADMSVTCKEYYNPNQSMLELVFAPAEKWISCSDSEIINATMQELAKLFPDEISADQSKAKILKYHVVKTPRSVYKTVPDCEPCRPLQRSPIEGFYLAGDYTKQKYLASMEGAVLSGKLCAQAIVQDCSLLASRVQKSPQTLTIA
Description: as §1, §2, §3, §4, §5, §6, §7

For assay [3], the target named is hydrilla PDS Arg^304 → Serine, His-tagged (Hydrilla verticillata, UniProt Q66PY0, R304S). Format: biochemical. Conditions: Serine at 304; His-tagged, column-purified PDS; read-out: I50.
hydrilla PDS Arg^304 → Serine, His-tagged (Hydrilla verticillata, UniProt Q66PY0, R304S), sequence (Q66PY0 77-580 R304S): as the sequence (Q66PY0 77-580 R304T) above, with T228S counted along it
Description: as §1, §2, §3, §4, §5, §6, §7

In assay [4] the test system is hydrilla PDS Arg^304 → Cysteine, His-tagged. Format: biochemical, Hydrilla verticillata. Conditions: Cysteine at 304 relative to Arginine; Table 2A.
Description: as §1, §2, §3, §4, §5, §6, §7

The subject of assay [5] is hydrilla PDS Arg^304 → Histidine, His-tagged. Format: biochemical, Hydrilla verticillata. As to conditions: Histidine at 304 relative to Arginine; Table 2A.
Description: as §1, §2, §3, §4, §5, §6, §7

Assay [6] addresses hydrilla PDS Arg^304 → Cysteine, His-tagged (Hydrilla verticillata, UniProt Q66PY0, R304C). Format: biochemical. Conditions: Cysteine at 304; His-tagged, column-purified PDS; read-out: I50.
Description: as §1, §2, §3, §4, §5, §6, §7

Assay [7] relates to hydrilla PDS Arg^304 → Serine, His-tagged. It counts as biochemical, Hydrilla verticillata. Conditions: Serine at 304 relative to Arginine; Table 2A.
Description: as §1, §2, §3, §4, §5, §6, §7

Assay [8] deals with hydrilla PDS Arg^304 → Histidine, His-tagged (Hydrilla verticillata, UniProt Q66PY0, R304H). Format: biochemical. Conditions: Histidine at 304; His-tagged, column-purified PDS; read-out: I50.
hydrilla PDS Arg^304 → Histidine, His-tagged (Hydrilla verticillata, UniProt Q66PY0, R304H), sequence (Q66PY0 77-580 R304H): as the sequence (Q66PY0 77-580 R304T) above, with T228H counted along it
Description: as §1, §2, §3, §4, §5, §6, §7

hydrilla PDS Arg^304 → Cysteine, His-tagged (Hydrilla verticillata, UniProt Q66PY0, R304C), sequence (Q66PY0 77-580 R304C): as the sequence (Q66PY0 77-580 R304T) above, with T228C counted along it

On to `CCC(Oc1ccc(F)c(C(F)(F)F)c1)C(=O)NCc1ccccc1` (stereo not shown) [Beflubutamid], for which the R/S stood at 1.5 in assay [1], 3.2 in assay [4], 1.75 in assay [5] and 6.5 in assay [7]. Also, the IC50 turned out to be 106 µM in assay [2], 465 µM in assay [3], 232 µM in assay [6] and 126 µM in assay [8].
`O=C(Nc1ccc(F)cc1F)c1cccnc1Oc1cccc(C(F)(F)F)c1` [Diflufenican]: the R/S turned out to be 1.0 in assay [1], 2.4 in assay [4], 1.0 in assay [5] and 2.2 in assay [7]. Also, the IC50 in assay [2] was found to be 104 µM; in assay [3], 223 µM; in assay [6], 241 µM; in assay [8], 103 µM.
Consider `O=C1C(Cl)C(CCl)CN1c1cccc(C(F)(F)F)c1` (stereo not shown) [Fluorochloridone], for which the R/S came out at 1.6 in assay [1], 2.2 in assay [4], 2.8 in assay [5] and 4.0 in assay [7]. The IC50 was found to be 210 µM in assay [2], 518 µM in assay [3], 283 µM in assay [6] and 364 µM in assay [8].
In the case of `CNC1=C(c2cccc(C(F)(F)F)c2)C(=O)C(c2ccccc2)O1` (stereo not shown) [Flurtamone], the R/S in assay [1] came out at 5.9; in assay [4], 3.8; in assay [5], 2.1; in assay [7], 2.4. Further, the IC50 in assay [2] was 1780 µM; in assay [3] it was 707 µM; in assay [6] it was 1150 µM; in assay [8], 630 µM.
As for `CNc1cnn(-c2cccc(C(F)(F)F)c2)c(=O)c1Cl` [Norflurazon], the R/S in assay [1] is 30.0; in assay [4], 37.0; in assay [5] it was 9.7; in assay [7] it was 82.0. Also, the IC50 was 1510 µM in assay [2], 4100 µM in assay [3], 1870 µM in assay [6] and 486 µM in assay [8].
With `O=C(Nc1ccc(F)cc1)c1cccc(Oc2cccc(C(F)(F)F)c2)n1` [Piconilafen, Picolinafen], the R/S is on record as 0.2 in assay [1], 0.3 in assay [4], 0.3 in assay [5] and 0.2 in assay [7]. Also, the IC50 in assay [2] stood at 60 µM; in assay [3] it was 62 µM; in assay [6], 96 µM; in assay [8], 112 µM.
As for Fluridone, the R/S is 7.8 in assay [1], 2.6 in assay [4], 4.8 in assay [5] and 2.0 in assay [7].
